Laboratory results taken from US20100034766A1, “Malodor Counteracting Compositions” (Givaudan SA, priority 2006, published 2010).
Where a name gives a salt, the structure may show the parent alone.

What was measured:
[1] = Malodor reduction potential: headspace GC/MS determination of hexyl amine remaining; settings: for % Reduction of hexyl amine: 10 ul hexyl amine
Method: A 1 liter glass headspace collection jar had placed inside it a 25 ml stoppered glass container which contained 0.5 g of a test compound/mixture of compounds as indicated in Table 3. 10 ul of hexyl amine as a representative malodor was injected into the headspace jar. This was left for 15 minutes at 25° C. to equilibrate. One ml/minute of the headspace was drawn for one minute through a Tenax™ headspace trap. The trap was removed and analyzed to determine the initial concentration of the malodor. The glass stopper was removed from the container and the test component and the malodor were left in contact for 60 minutes at 25° C. One ml/minute of the headspace was drawn for one minute through a Tenax™ headspace trap to determine the amount of malodor remaining. The Tenax traps were thermally desorbed into an Agilent 6890 GC/MS to analyze the quantity of hexyl amine. The results are shown in Table 3 below: Following the same procedure described in Example 1, compounds according to formula (B) were mixed with an equal amount of citronellyl methylcrotonate. 0.5 g of the resulting mixture was tested against 10 ul hexyl amine as a representative malodor. Following the same procedure described in Example 1,5-(1-(3,3-dimethyl-cyclohexyl)ethoxy)-5-methylhexan-2-one (compound 10) was mixed with an equal amount of compounds of formula (A). 0.5 g of the resulting mixture was tested against 10 ul hexyl amine as a representative malodor.

[2] = Sensory test of axilla malodor reduction on cotton pads, expert panel, Labeled Magnitude Scale; settings: Example 4, Table 6; 0.4 g of 10% ethanol solution of test mixture on pad with 0.5 g of 1% synthetic axilla malodor; expert panel of 5, LMS
Method: Test mixtures of a compound of formula (A) and a compound of formula (B) in the ratio as given in Table 6 (10% ethanol solution) of each was prepared. 0.5 g of a 1% ethanol solution of synthetic axilla malodor was placed onto cotton pads. 0.4 g of the ethanol solution of the test mixtures, respectively, was placed on each axilla malodor treated cotton pad. One pad was left untreated as the control. Each pad was allowed to dry for 15 minutes. The test cotton pads were randomized, and an expert panel of 5 was used to determine the intensity of the malodor. Each panelist was asked to check a box that represented the strength of the axilla malodor using a Labeled Magnitude Scale (LMS) (Barry G. Green, Pamela Dalton, Beverly Cowart, Greg Shaffer, Krystyna Rankin and Jennifer Higgins. Evaluating the Labeled Magnitude Scale for Measuring Sensations of Taste and Smell. Chemical Senses. Vol. 21, pp 323-334, 1996).
The % reduction of malodor was calculated by:
% Reduction=(Mean LMS Control−Mean LMS Test)/Mean LMS Control
A Givaudan fragrance composition containing solvent dipropylene glycol at 20% (Composition A) and a fragrance composition (Composition B) wherein 10% dipropylene glycol are replaced by 10% of a mixture of compound 4 and geranyl:crotonate (1:9); were compared for MOC efficacy using the sensory test described in Example 4.

[3] = Example 1, Table 3, 0.5 g test compound/mixture, 60 minutes contact at 25° C., headspace
[4] = Example 3, Table 5, compound 10 mixed with equal amount of formula (A) compounds, 0.5 g

Compound	% Reduction of hexyl amine [1, 3] [%]	% Reduction of hexyl amine [1, 4] [%]	% Reduction of axilla malodor [2] [%]	% Reduction of hexyl amine ([1]; Example 2, Table 4, formula (B) compounds mixed with equal amount of citronellyl methylcrotonate, 0.5 g) [%]	effect on the effectiveness of the class A compound (hexyl amine reduction) ([1]; compound 4 in combination with a class A compound, Table 3)
CCCCC(CC)COC(=O)C=Cc1ccc(OC)cc1 (stereo not drawn) [Octyl methyl cinnamate, 2-ethyl-hexyl-para-methoxy-cinnamate]	54.1	58.7	–	–	–
O=C(C=Cc1ccccc1)OCc1ccccc1 [benzyl cinnamate]	23.5	62.1	–	–	–
CC(C)=CCCC(C)CCOC(=O)C=C(C)C (stereo not drawn) [citronellyl methylcrotonate, 3,7-dimethyloct-6-enyl 3-methylbut-2-enoate]	53.6	–	51.0	61.3	–
CC(OC(C)(C)COC(=O)C1CC1)C1CCCC(C)(C)C1 (stereo not drawn) [compound 4, cyclopropanecarboxylic acid 2-[1-(3,3-dimethylcyclohexyl)ethoxy]-2-methylpropyl ester]	–	–	–	–	significantly increases the effectiveness
CCCCCCOC(=O)/C=C/C(=O)OCCCCCC [dihexyl fumarate]	68.7	78.1	–	–	–
C/C=C/C(=O)OC/C=C(\C)CCC=C(C)C [geranyl crotonate]	64.7	71.0	–	–	–
